Experimental data reported in PMC7274154, “Identification and Characterization of GPCRs for Pyrokinin and CAPA Peptides in the Brown Marmorated Stink Bug, Halyomorpha halys (Hemiptera: Pentatomidae)” (Frontiers in Physiology, 2020).
“Also recorded” adds a separate entry of the source. Where no end group is shown, it is not given here.

Legend:
Type in all cases: cell-based, Halyomorpha halys
HalhaPK-R3a [1] = assay: Concentration-response, calcium mobilization (FLIPR Calcium 6) in Sf9 cells expressing HalhaPK-R3a; conditions: for EC50: HalhaPK-R3a in Sf9 cells, intracellular calcium, FLIPR Calcium 6 fluorescence, at least three independent experiments, read-out: Half-maximum effective concentration (EC50); for Response in functional assay (words): HalhaPK-R3a, Sf9 cells, concentration-response
Procedure: (§1) Five micrograms of each purified pIB/HalhaPK-R (or CAPA-R) plasmid and 15 μL of Cellfectin II reagent (Thermo Fisher Scientific) were diluted into 500 μL of serum free Insectagro Sf9 medium (Corning, Corning, NY, United States) and allowed to incubate for 10 min at room temperature, after which they were mixed together and allowed to incubate for an additional 15–20 min. Each pIB/HalhaPK-R (or CAPA-R) Cellfectin mixture was then added to T-25 cell culture flasks containing Sf9 cells at 50% confluency and incubated overnight at 28°C. The following morning the media was removed from each flask and replaced with media containing 20 μg/mL blasticidin (Corning). Each transfected cell line was cultured in the presence of 20 μg/mL blasticidin for ∼3 weeks until a blasticidin-resistant cell line was established, after which the blasticidin concentration was reduced to 10 μg/mL and the cell lines were frozen prior to testing in functional assays.
(§2) Peptides encoded by H. halys pyrokinin and capa genes used in this study have been recently identified ([Ahn and Choi, 2018]). Four peptides (>95% purity): PK2 (FYAPFSPRLa), CAPA-PVK1 ([…]a), CAPA-PVK2 (EQLIPFPRVa), and CAPA-DH (= PK1-like, […]a) were synthesized to contain an amide group on their C-termini (Peptide 2.0 Inc., Chantilly, VA, United States). Peptides were solubilized in water, aliquoted into 2–20 nM working stocks, dried using a DNA120 SpeedVac Concentrator (Thermo Scientific), and frozen at –20°C until use in binding assays.
(§3) For each cell line expressing a specific H. halys PRXamide receptor, cells were thawed and cultured for at least three passages in a suspension culture containing blasticidin prior to functional assays. The transfected cell lines were grown as 20 mL suspension cultures in 50 mL-Erlenmeyer flasks with a screw cap, and shaken at 145 rpm at 28°C. For functional assays, cells were taken from a suspension culture in the exponential growth phase, and ∼50,000 cells were plated into each well of a tissue culture-treated, black-walled, 96-well plate (Corning). The plated cells were then incubated at 28°C for 48 h, after which the media was removed from the plates and the wells were rinsed with serum-free media, then loaded with 95 μL of 1X FLIPR Calcium 6 assay reagent (Molecular Devices, Sunnyvale, CA, United States). Plates were incubated at room temperature for 60 min then transferred to a FlexStation 3 Multi-Mode Microplate Reader (Molecular Devices) to measure cell fluorescence intensity from intracellular calcium influx after peptide-induced receptor activation. Wells of cells were then treated with 5 μL of water or 20X concentrations of each peptide using the automated injection system of the FlexStation plate reader. In all experiments, fluorescence was measured every 5 s for 30 s prior to treatment and for 2 min after exposure. In all cases, the maximum response obtained occurred ∼20 s after exposure to ligand. The mean response of four wells receiving the same treatment was calculated and expressed as a change in fluorescence from baseline (prior to treatment) to maximum response. For initial screening, each cell line was exposed to a single concentration of 500 nM of each peptide or control. Compounds that elicited responses were tested further in concentration-response experiments. Concentration-response curves and EC50 values were generated using the variable slope, four parameter non-linear regression function of GraphPad Prism data analysis (GraphPad Software, Inc., San Diego, CA, United States). Each cell line was tested for its response to peptides in at least three independent experiments.

HalhaPK-R2 [2] = assay: Concentration-response, calcium mobilization (FLIPR Calcium 6) in Sf9 cells expressing HalhaPK-R2; conditions: for EC50: HalhaPK-R2 in Sf9 cells, intracellular calcium, FLIPR Calcium 6 fluorescence, at least three independent experiments, read-out: Half-maximum effective concentration (EC50); for Response in functional assay (words): HalhaPK-R2, Sf9 cells, concentration-response
Procedure: as §1, §2, §3

HalhaPK-R1b [3] = assay: Concentration-response, calcium mobilization (FLIPR Calcium 6) in Sf9 cells expressing HalhaPK-R1b; conditions: for EC50: HalhaPK-R1b in Sf9 cells, intracellular calcium, FLIPR Calcium 6 fluorescence, at least three independent experiments, read-out: Half-maximum effective concentration (EC50)
Procedure: as §1, §2
as §3, with “Concentration-response curves and EC50 values were generated using the variable slope, four parameter non-linear regression function of GraphPad Prism data analysis (GraphPad Software, Inc., San Diego, CA, United States). Each cell line was tested for its response to peptides in at least three independent experiments.” left out

HalhaCAPA-R = assay: Concentration-response, calcium mobilization (FLIPR Calcium 6) in Sf9 cells expressing HalhaCAPA-R; conditions: for EC50: HalhaCAPA-R in Sf9 cells, intracellular calcium, FLIPR Calcium 6 fluorescence, at least three independent experiments, read-out: Half-maximum effective concentration (EC50); for Response in functional assay (words): HalhaCAPA-R, Sf9 cells, concentration-response
Procedure: as §1, §2, §3

HalhaPK-R1a [4] = assay: Concentration-response, calcium mobilization (FLIPR Calcium 6) in Sf9 cells expressing HalhaPK-R1a; conditions: for EC50: HalhaPK-R1a in Sf9 cells, intracellular calcium, FLIPR Calcium 6 fluorescence, at least three independent experiments, read-out: Half-maximum effective concentration (EC50)
Procedure: as §1, §2
as §3, with “Concentration-response curves and EC50 values were generated using the variable slope, four parameter non-linear regression function of GraphPad Prism data analysis (GraphPad Software, Inc., San Diego, CA, United States). Each cell line was tested for its response to peptides in at least three independent experiments.” left out

HalhaPK-R3b [5] = assay: Concentration-response, calcium mobilization (FLIPR Calcium 6) in Sf9 cells expressing HalhaPK-R3b; conditions: for EC50: HalhaPK-R3b in Sf9 cells, intracellular calcium, FLIPR Calcium 6 fluorescence, at least three independent experiments, read-out: Half-maximum effective concentration (EC50); for Response in functional assay (words): HalhaPK-R3b, Sf9 cells, concentration-response
Procedure: as §1, §2, §3

HalhaPK-R1b [6] = assay: Initial screening at 500 nM, Sf9 cells expressing HalhaPK-R1b; conditions: three independent experiments
Procedure: as §1, with “Each transfected cell line was cultured in the presence of 20 μg/mL blasticidin for ∼3 weeks until a blasticidin-resistant cell line was established, after which the blasticidin concentration was reduced to 10 μg/mL and the cell lines were frozen prior to testing in functional assays.” left out
(§4) For each cell line expressing a specific H. halys PRXamide receptor, cells were thawed and cultured for at least three passages in a suspension culture containing blasticidin prior to functional assays. […] Plates were incubated at room temperature for 60 min then transferred to a FlexStation 3 Multi-Mode Microplate Reader (Molecular Devices) to measure cell fluorescence intensity from intracellular calcium influx after peptide-induced receptor activation. Wells of cells were then treated with 5 μL of water or 20X concentrations of each peptide using the automated injection system of the FlexStation plate reader. In all experiments, fluorescence was measured every 5 s for 30 s prior to treatment and for 2 min after exposure. […]

HalhaPK-R3a [7] = assay: Initial screening at 500 nM, Sf9 cells expressing HalhaPK-R3a; conditions: three independent experiments
Procedure: as §1, with “Each transfected cell line was cultured in the presence of 20 μg/mL blasticidin for ∼3 weeks until a blasticidin-resistant cell line was established, after which the blasticidin concentration was reduced to 10 μg/mL and the cell lines were frozen prior to testing in functional assays.” left out
as §4

HalhaPK-R3b [8] = assay: Initial screening at 500 nM, Sf9 cells expressing HalhaPK-R3b; conditions: three independent experiments
Procedure: as §1, with “Each transfected cell line was cultured in the presence of 20 μg/mL blasticidin for ∼3 weeks until a blasticidin-resistant cell line was established, after which the blasticidin concentration was reduced to 10 μg/mL and the cell lines were frozen prior to testing in functional assays.” left out
as §4

HalhaPK-R1a [9] = assay: Initial screening at 500 nM, Sf9 cells expressing HalhaPK-R1a; conditions: three independent experiments
Procedure: as §1, with “Each transfected cell line was cultured in the presence of 20 μg/mL blasticidin for ∼3 weeks until a blasticidin-resistant cell line was established, after which the blasticidin concentration was reduced to 10 μg/mL and the cell lines were frozen prior to testing in functional assays.” left out
as §4

HalhaPK-R2 [10] = assay: Initial screening at 500 nM, Sf9 cells expressing HalhaPK-R2; conditions: three independent experiments
Procedure: as §1, with “Each transfected cell line was cultured in the presence of 20 μg/mL blasticidin for ∼3 weeks until a blasticidin-resistant cell line was established, after which the blasticidin concentration was reduced to 10 μg/mL and the cell lines were frozen prior to testing in functional assays.” left out
as §4

Molecule	EC50 (HalhaPK-R3a [1])	EC50 (HalhaPK-R2 [2])	EC50 (HalhaPK-R1b [3])	EC50 (HalhaCAPA-R)	Response in functional assay (words) (HalhaCAPA-R)	EC50 (HalhaPK-R1a [4])	EC50 (HalhaPK-R3b [5])	Ligand-induced receptor activation (response in words) (HalhaPK-R1b [6])	Response in functional assay (words) (HalhaPK-R3a [1])	Ligand-induced receptor activation (response in words) (HalhaPK-R3a [7])	Ligand-induced receptor activation (response in words) (HalhaPK-R3b [8])	Ligand-induced receptor activation (response in words) (HalhaPK-R1a [9])	Ligand-induced receptor activation (response in words) (HalhaPK-R2 [10])	further results
CC(C)C[C@H](NC(=O)CNC(=O)[C@H](C)NC(=O)[C@@H](N)CC(=O)O)C(=O)N[C@@H](Cc1ccccc1)C(=O)N1CCC[C@H]1C(=O)N[C@@H](Cc1ccccc1)C(=O)N1CCC[C@H]1C(=O)N[C@@H](CCCNC(=N)N)C(=O)N[C@H](C(N)=O)C(C)C [CAPA-PVK1]	> 1000 nM	> 1000 nM	> 1000 nM	80 nM	responded specifically to PVK1 and PVK2 peptides; also recorded: concentration-dependent response to PVK1 and PVK2 (Figure 2), with similar sensitivity and degree of absolute magnitude	> 1000 nM	> 1000 nM							
CC[C@H](C)[C@H](NC(=O)[C@H](CC(C)C)NC(=O)[C@H](CCC(N)=O)NC(=O)[C@@H](N)CCC(=O)O)C(=O)N1CCC[C@H]1C(=O)N[C@@H](Cc1ccccc1)C(=O)N1CCC[C@H]1C(=O)N[C@@H](CCCNC(=N)N)C(=O)N[C@H](C(N)=O)C(C)C [CAPA-PVK2]	> 1000 nM	> 1000 nM	> 1000 nM	57 nM	responded specifically to PVK1 and PVK2 peptides; also recorded: concentration-dependent response to PVK1 and PVK2 (Figure 2), with similar sensitivity and degree of absolute magnitude	> 1000 nM	> 1000 nM							
FYAPFSPRL-NH2 [PBAN/PK2]	199 nM	35 nM	420 nM	> 1000 nM		> 1000 nM	142 nM	responded to PK2 and CAPA-DH peptides to varying degrees	positive concentration-dependent activity	responded to PK2 and CAPA-DH peptides to varying degrees	responded to PK2 and CAPA-DH peptides to varying degrees	responded to PK2 and CAPA-DH peptides to varying degrees	responded to PK2 and CAPA-DH peptides to varying degrees	Response in functional assay (words) (HalhaPK-R2 [2]): strongest response; also recorded: responded strongly; also recorded: positive concentration-dependent activity; also recorded: much more sensitive to PK2 than the PK1 peptide; Response in functional assay (words) (HalhaPK-R1b [3]; HalhaPK-R1b, Sf9 cells, concentration-response): positive concentration-dependent activity; also recorded: responded weakly; Response in functional assay (words) (HalhaPK-R1a [4]; HalhaPK-R1a, Sf9 cells, concentration-response): positive concentration-dependent activity; also recorded: responded weakly; Response in functional assay (words) (HalhaPK-R3b [5]): positive concentration-dependent activity; also recorded: strongly responded to both PK1 and PK2 peptides
NGASGNGGLWFGPRL-NH2 [CAPA-DH/PK1]	660 nM	800 nM	> 1000 nM	> 1000 nM		> 1000 nM	91 nM	responded to PK2 and CAPA-DH peptides to varying degrees	concentration-dependent responses	responded to PK2 and CAPA-DH peptides to varying degrees	responded to PK2 and CAPA-DH peptides to varying degrees	responded to PK2 and CAPA-DH peptides to varying degrees	responded to PK2 and CAPA-DH peptides to varying degrees	Response in functional assay (words) (HalhaPK-R2 [2]; listed as CAPA-DH): concentration-dependent responses; Response in functional assay (words) (HalhaPK-R2 [2]; listed as PK1): moderate response; Response in functional assay (words) (HalhaPK-R3b [5]; listed as CAPA-DH): highest sensitivity to PK1 (= CAPA-DH), especially for HalhaPK-R3b; also recorded: concentration-dependent responses; also recorded: most sensitive to CAPA-DH among the six GPCRs; Response in functional assay (words) (HalhaPK-R3b [5]; listed as PK1): strongest response to PK1; also recorded: strongly responded to both PK1 and PK2 peptides
